Key:
[1] = test system: potential-dependent cation channel of isolated olfactory cells; assay: Test for measuring potential-dependent cation channel activity (whole-cell recording, inward current on depolarization); type: cell-based, Japanese fire belly newt (Cynops pyrrhogaster); conditions: for Channel suppression ratio (inward current suppression ratio): Reference Example, concentration not given; for Inhibition ratio (%) (inward current suppression ratio): depolarization -90 mV to -20 mV, newt olfactory cells
Method: 1. Isolation of Olfactory Cells
To briefly explain the method of isolation, each newt which had been hibernated in ice-water was double-pithed, and the cranium was cut open to remove olfactory mucosa. The removed olfactory mucosa was incubated in a 0.1% collagenase solution at 37° C. for 5 minutes, and collagenase was washed off. Subsequently, the mucosal tissue was crushed by means of a glass pipette to thereby isolate cells. As the normal Ringer's solution, a solution of 110 mM NaCl, 3.7 mM KCl, 3 mM CaCl2, 1 mM MgCl2, 15 mM glucose, 1 mM sodium pyruvate, 10 mM HEPES, and 0.001% (w/v) Phenol Red, at pH 7.4 (adjusted with NaOH), was used.
2. Measurement of Electrical Activity [A. Setting] […] A borosilicate glass capillary (diameter: 1.2 mm) was used as the electrode, and the electrode was produced using a puller for electrode fabrication (P-97, Sutter Instrument Co.) (electrode resistance: approximately 6.0 MΩ). An electrode filling solution and a silver-silver chloride wire were inserted into the electrode, the silver-silver chloride wire was connected to a patch clamp amplifier (EPC10, HEKA), and thus fixation of the membrane potential and depolarization simulation were performed. […] The recording of the membrane current was performed using a computer (IBM-compatible) connected to the patch clamp amplifier (sampling frequency: 1 kHz), and Patch Master software (HEKA) was used for the measurement and analysis. The addition (spraying) of a test substance was carried out using a pressure controller.
[B. Procedure] In order to investigate the effect of each of the test substances described above (see Table 1) on the potential-dependent cation channel activity, the membrane potential of the isolated olfactory cells was fixed at −90 mV, and the membrane potential was depolarized to −20 mV for 20 milliseconds at an interval of 200 milliseconds. The peak intensity of the inward current produced immediately after depolarization (FIG. 1. |a|=[Inward current value produced immediately after depolarization]−[baseline value]) was measured. While depolarization stimulation was continuously repeated, the test substance was adjusted to the various concentrations indicated in Table 1 using normal Ringer's solution, and the mixture was added to the olfactory cells by spraying the mixture (for 650 milliseconds, pressure: 100 kPa) through a glass pipette (tip diameter: 1 μm) that was placed such that the tip of the pipette was located in the vicinity (10 μm) of the olfactory cells . The change in the inward current (FIG. 1, |b|=[Inward current value when the peak intensity was most suppressed]−[baseline value]) resulting from the spraying was investigated. This spraying was carried out continuous for 5 times. Furthermore, the average value A of the peak intensities (a) of the inward current produced by the depolarization immediately before the addition of an extract, and the average value B of the peak intensities (b) of the inward current produced by the depolarization immediately after the addition of an extract were calculated.
The CNG channel current can be easily distinguished from the potential-dependent channel current, in terms of the intensity, peak shape, duration and the like.
The “inward current suppression ratio (%)” was calculated from the “B: average value of the inward current value (b) when the peak intensity was most suppressed” and the “A: average value of the inward current value (a) produced immediately after the depolarization immediately before the addition of an extract,” as shown in the following formula.

[2] = Olfaction masking test by sensory evaluation, hexanoic acid as malodorous substance; type: in vivo, human beings; conditions: 10 panelists, hexanoic acid 10%, 20 μL, same cotton ball
Method: An olfaction masking test based on sensory evaluation was carried out with 10 panelists. […] The cotton ball was placed in a 50-mL container, and the malodorous substance was volatilized overnight at room temperature.
The evaluation was carried out such that each panelist smelled the odor in the container, and determined the strength of masking of hexanoic acid by the addition of the adamantane derivatives. The intensity of odor of simple hexanoic acid was set to 5.0, which is an intermediate point among the 21 grades of evaluation criteria (0: no odor, 10: strong odor).

[3] = Sensory evaluation olfaction masking test, isovaleric acid as malodorous substance; type: in vivo; conditions: 20 panelists; isovaleric acid 1%, 2 μL; test solution 0.1%, 4 μL; six-grade score 0 (masking not achieved) to 5 (perfect masking)
Method: [Sensory evaluation test]
An olfaction masking test based on sensory evaluation was carried out with 20 panelists.
2 μL of the malodorous substance and 4 μL of a test solution of each of the test compounds indicated in Table 3 at a concentration of 0.1% were impregnated into separate cotton balls (diameter: 1 cm), and the substances were volatilized for 12 hours at room temperature in each of separate 50-mL injection syringes. The isovaleric acid and test compound volatilized in the syringe were injected into a PP container (capacity: 500 mL) with a cap and were mixed in the container.
The evaluation was carried out such that each panelist slightly opened the cap of the PP container and smelled the odor in the container, and the panelist determined the masking strength for the odor of isovaleric acid.
The evaluation of the masking strength was carried out based on the following six-grade masking scores, based on a comparison with the intensity of odor in a PP container to which only volatilized isovaleric acid had been injected.
0: Masking is not achieved.
1: A very slight masking effect is recognized.
2: A slight masking effect is recognized.
4: Masking is almost achieved.
5: Perfect masking is achieved.

CC1=CC(C)C(C=O)CC1 (centres unmarked) [TRIPLAL]
Channel suppression ratio (inward current suppression ratio) [1]: 79.9%

C=CC(C)(CCC=C(C)C)OC(C)=O (centres unmarked) [LINALYL ACETATE]
Channel suppression ratio (inward current suppression ratio) [1]: 43.3%

CCC(O)COC1CCCCC1C(C)(C)C (centres unmarked) [AMBER CORE]
Channel suppression ratio (inward current suppression ratio) [1]: 27.1%

O=C(OCc1ccccc1)c1ccccc1 [BENTHYL BENZOATE]
Channel suppression ratio (inward current suppression ratio) [1]: 10.7%

OC12CC3CC(CC(C3)C1)C2 [Example 1, 1-Adamantanol]
Inhibition ratio (%) (inward current suppression ratio) ([1]; evaluation concentration 0.04%): 72.4%

C=CC(C)(O)CCC=C(C)C (centres unmarked) [Linalool]
Channel suppression ratio (inward current suppression ratio) [1]: 106.5%

CCOC(=O)C(C)C1CCCCC1 (centres unmarked) [POIRENATE]
Channel suppression ratio (inward current suppression ratio) [1]: 48.7%

OCCC12CC3CC(CC(C3)C1)C2 [Example 2, 1-Adamantane ethanol]
Inhibition ratio (%) (inward current suppression ratio) ([1]; evaluation concentration 0.04%): 63.4%

CC12CCC(CC1)C(C)(C)O2 [1,8-Cineol]
Channel suppression ratio (inward current suppression ratio) [1]: 46.5%

CC12CC3CC(C)(C1)CC(CO)(C3)C2 [Example 5, 3,5-Dimethyladamantane-1-methanol]
Inhibition ratio (%) (inward current suppression ratio) ([1]; evaluation concentration 0.01%): 59.9%
Hexanoic acid odor intensity suppression ratio (%) ([2]; test solution 50%): 28%

CCOC(=O)C12CCCC1C1CCC2C1 (centres unmarked) [FRUIT ATE]
Channel suppression ratio (inward current suppression ratio) [1]: 11.6%

CCOC(=O)CC(=O)C12CC3CC(CC(C3)C1)C2 [Example 9, Ethyl-3-(1-adamantyl)-3-oxopropionate]
Inhibition ratio (%) (inward current suppression ratio) ([1]; evaluation concentration 0.01%): 45.5%

NCC12CC3CC(CC(C3)C1)C2 [Example 6, 1-Adamantane methylamine]
Inhibition ratio (%) (inward current suppression ratio) ([1]; evaluation concentration 0.01%): 54.5%
Hexanoic acid odor intensity suppression ratio (%) ([2]; test solution 50%): 78%

CC=CC(=O)C1=C(C)CCCC1(C)C [b-DAMASCONE]
Masking score [3]: 2.4
Channel suppression ratio (inward current suppression ratio) [1]: 56.1%

CC(=O)NC12CC3CC(CC(C3)C1)C2 [Example 10, 1-Acetamidoadamantane]
Inhibition ratio (%) (inward current suppression ratio) ([1]; evaluation concentration 0.01%): 40.6%

CC(C)=CCC/C(C)=C/CO [GERANIOL]
Channel suppression ratio (inward current suppression ratio) [1]: 90.1%

C=CC(C)CCCC(C)(C)O (centres unmarked) [DIHYDRO MYRCENOL]
Channel suppression ratio (inward current suppression ratio) [1]: 109.0%

CC(C=O)Cc1ccc(C(C)(C)C)cc1 (centres unmarked) [LILIAL]
Channel suppression ratio (inward current suppression ratio) [1]: 57.9%

CC/C=C\CCO [cis-3-HEXENOL]
Channel suppression ratio (inward current suppression ratio) [1]: 78.7%

CC(C)=CCCC(C)=CC=O [CIT RAL]
Channel suppression ratio (inward current suppression ratio) [1]: 110.6%

C1C2CC3CC1CC(C2)C3 [Comparative Example 1, Adamantane]
Inhibition ratio (%) (inward current suppression ratio) ([1]; evaluation concentration 0.04%): 10.9%

CC(=O)C12CC3CC(CC(C3)C1)C2 [Example 7, 1-Adamantylmethyl ketone]
Inhibition ratio (%) (inward current suppression ratio) ([1]; evaluation concentration 0.01%): 32%

CC(=O)OC1CCCCC1C(C)(C)C (centres unmarked) [o-t-B.C.H.A]
Channel suppression ratio (inward current suppression ratio) [1]: 23.8%

CC(N)C12CC3CC(CC(C3)C1)C2.Cl (centres unmarked) [Example 11]
Inhibition ratio (%) (inward current suppression ratio) ([1]; evaluation concentration 0.01%): 78.9%

CC(=O)OCCC(C)C [iso-AMYL ACETATE]
Channel suppression ratio (inward current suppression ratio) [1]: 92.0%

O=C(O)CC12CC3CC(CC(C3)C1)C2 [Example 8, 1-Adamantane acetic acid]
Inhibition ratio (%) (inward current suppression ratio) ([1]; evaluation concentration 0.04%): 82.5%
Hexanoic acid odor intensity suppression ratio (%) ([2]; test solution 25%): 32%

O=Cc1ccccc1 [BENZALDEHYDE]
Channel suppression ratio (inward current suppression ratio) [1]: 95.4%

OCCc1ccccc1 [PHENYL ETHYL ALCOHOL]
Channel suppression ratio (inward current suppression ratio) [1]: 82.6%

CC12CC3CC(C1)CC(C)(C3)C2 [Comparative Example 2, 1,3-Dimethyladamantane]
Inhibition ratio (%) (inward current suppression ratio) ([1]; evaluation concentration 0.01%): 0%

CC(C)(O)CCCC1=CCC(C=O)CC1 (centres unmarked) [LYRAL]
Channel suppression ratio (inward current suppression ratio) [1]: 35.7%

COc1ccc(C=O)cc1 [ANIS ALDEHYDE]
Channel suppression ratio (inward current suppression ratio) [1]: 89.3%
